According to US20130204017A1, “GLYCERYL ASCORBIC ACID ACYLATED DERIVATIVE OR ITS SALT, PRODUCTION METHOD THEREOF, AND COSMETICS” (SEIWA KASEI COMPANY, LIMITED, priority 2012, published 2013):

Legend:
[1] = Stability test: odor and color change of 2% aqueous solution stored at 50° C.; format: physicochemical; conditions: pH7, ten panelists
Description: Using 2-O-glyceryl-6-O-octanoyl ascorbic acid obtained in Example 2 and 2-O-glyceryl-6-O-octadecanoyl ascorbic acid obtained in Example 9, an evaluation was made on the stability of odor and color change when stored at 50° C. for 4 weeks, according to the following procedure. For comparison, magnesium ascorbyl phosphate, ascorbic acid and 3-O-glyceryl ascorbic acid were used.
Aqueous solutions (2%) of various test samples were adjusted to pH7 with a dilute sodium hydroxide aqueous solution or a dilute hydrochloric acid aqueous solution, and charged into 50 mL screw tubes. The tubes were sealed and stored at 50° C. for 4 weeks. The odor and degree of color change immediately after preparation, after storage for two weeks and after storage for four weeks were evaluated by ten panelists based on the following methods and according to the following criterion.
3: almost no change as compared with that immediately after preparation
2: color change is observed as compared with that immediately after preparation
1: intense color change is observed as compared with that immediately after preparation
Based on the evaluation results, classification was conducted as shown below.
◯: total point of 10 panelists is 25 or more
Δ: total point of 10 panelists is 16 to 24
x: total point of 10 panelists is 15 or less

[2] = tested on: Normal human dermal fibroblasts; test: Collagen production evaluation test (Sircol collagen assay); format: cell-based; conditions: sample 100 μM, cultured 48 hours; for activity at 100 µM: Homo sapiens, Fibroblast, read-out: Collagen production promoting effect (collagen production amount, control group is 100%)
Description: The collagen production promoting effects of the glyceryl ascorbic acid acylated derivatives of the present invention were evaluated, according to the following procedure. As comparison, arbutin, ascorbic acid, sodium ascorbate, magnesium ascorbyl phosphate, glucosyl ascorbic acid, 3-O-glyceryl ascorbic acid and 2-O-glyceryl ascorbic acid were used like in Test Example 1.
Normal human dermal fibroblasts were regulated with a 10% (v/v) fetal bovine serum (manufactured by Invitrogen)-containing D-MEM so as to give a cell density of 2.5×10^4 cells/well, then, pre-incubation for 24 hours was performed on a 96-well plate. After the medium was removed, a sample regulated with a 5% (v/v) fetal bovine serum-containing D-MEM to a concentration of 100 μM was added to each well, then, cultured for 48 hours at 37° C. and 5% CO2. After completion of culturing, the amount of free collagen was measured using Sircol collagen assay kit (manufactured by Biocolor).
The collagen production amount in applying a sample at a concentration of 100 μM is obtained as % value when the control group is 100%, and the results are shown in Table 4 based on the following standard.

[3] = tested on: B16 melanoma 4A5 cell; test: Melanin production suppressing evaluation test (theophylline-induced melanine production); format: cell-based, mouse; conditions: sample at a concentration of 100 μl or less; 0.2 mM theophylline; culturing 3 days
Description: As a test for a whitening effect, evaluation of the action of B16 melanoma 4A5 cell on theophylline-induced melanine production was carried out on a glyceryl ascorbic acid acylated derivative of the present invention, according to the following procedure. The same evaluations were carried out also on arbutin, ascorbic acid, sodium ascorbate, magnesium ascorbyl phosphate, glucosyl ascorbic acid, and 3-O-glyceryl ascorbic acid and 2-O-glyceryl ascorbic acid obtained in the Synthesis Examples mentioned above, as comparison.
(1) B16 mouse melanoma 4A5 strain was sowed onto a 48-well plate at a cell density of 2.0×10^4 cells/well. (2) Culturing was performed for 24 hours with Dulbecco's Modified Eagle's medium (manufactured by SIGMA. Hereinafter, abbreviated as D-MEM) containing 10% fetal bovine serum (manufactured by Roshe Diagnostics). Then, it was changed to 0.2 mM theophylline and a 10% fetal bovine serum-containing D-MEM which contains a sample of given concentration. (3) After culturing for 3 days in the co-existence of a sample, the medium was removed using an aspirator. Then, after distilled water was added, cells were broken by an ultrasonic wave. (4) Thereafter, the amount of protein was determined using BCA protein assay kit (manufactured by PIERCE), and the produced amount of melanine was measured by an alkali solubilizing method described later. To the cell-destructed solution was added sodium hydroxide so as to give a final concentration of 2 mol/L and the mixture was dissolved by heating (60° C., 15 minutes), then, the absorbance at 450 nm was measured using a micro plate reader. The melanine amount was calculated from a calibration curve made using synthetic melanine (SIGMA) as a standard. The melanine amount per unit protein was calculated by dividing the melanine amount by the protein amount. (5) The melanine production suppressing rate was calculated according to the following formula.
Melanine production suppressing rate(%)=[1−(A−B)/(C−B)]×100
[wherein, A represents the melanine amount per unit protein (g/g) in adding a sample, B represents the melanine amount per unit protein (g/g) in the normal group, and C represents the melanine amount per unit protein (g/g) in the control group.]
The normal group means the case where neither theophylline nor sample was added.(that is; theophylline(−) and sample(−))
The control group means the case where neither sample was not added but theophylline was added.(that is; theophylline (+) and sample(−))
In the following Tables, the melanine production suppressing rate in applying a sample at a concentration of […] or less is expressed as described below.

[4] = In vivo moisturizing test (stratum corneum water content, forearm); conditions: 5 g in 100 mL water, pH 7, 0.3 mL on forearm, 10 subjects
Description: (§1) An in vitro moisturizing test and an in vivo moisturizing test of the glyceryl ascorbic acid acylated derivatives of Examples 1 to 6 were carried out according to the following manner. For comparison, sodium ascorbate, magnesium ascorbyl phosphate, glucosyl ascorbic acid, 3-O-glyceryl ascorbic acid, 2-O-glyceryl ascorbic acid and 3-O-cetyl ascorbic acid were used.
Each test sample (5 g) was dissolved in 100 mL of water, and pH thereof was adjusted to 7 with a dilute sodium hydroxide aqueous solution or a dilute hydrochloric acid aqueous solution to prepare a sample solution. A paper filter of 1 cm×1 cm was placed on a forearm portion and 0.3 mL of the prepared sample solution was applied on this, and covered and fixed by a polyamide film. Then, 3 hours and 8 hours after, the stratum corneum water content at the sample-applied portion was measured using CORNEOMETER CM825 (manufactured by Integral Corporation). The test was carried out with 10 subjects, and evaluated according to the following criterion (evaluation standard).
3: Stratum corneum water content increased by 15% or more, based on the water content before sample application
2: Stratum corneum water content increased by 0 to less than 15%, based on the water content before sample application
1: There was no change or there was a reduction in stratum corneum water content, before and after sample application.
Based on the evaluation results, classification was set as described below.
◯: Total points of 10 subjects is 25 or more
Δ: Total points of 10 subjects is 16 to 24
x: Total points of 10 subjects is 15 or less

[5] = In vitro moisturizing test (amount of retained water); format: physicochemical; conditions: 25° C., 65% RH to equilibrium, then 25° C., 20% RH for 24 hours
Description: as §1
A sample shown later was dried, and the dried sample was spread in an amount of about 0.4 g (this weight is represented by W0) on the bottom of a weighing bottle (diameter: 3.6 cm, height excluding lid: 1.8 cm) so as to give uniform thickness. The sample contained in the weighing bottle was allowed to stand still in a constant humidity and constant temperature vessel (ENVIROS KCL-1000, EYELA) under environments of 25° C. and 65% RH. The weight was measured periodically, waiting until sufficient moisture absorption to attain equilibrium of weight increase (about 48 hours). Thereafter, the sample was transferred to under environments of 25° C. and 20% RH (in sealed vessel containing a saturated CH3COOK aqueous solution filled in the bottom part). From the weight after 24 hours (this weight is represented by W1), the amount of retained water per 1 g of the dried sample was calculated according to the following formula.
From the water amount thus calculated, the moisturizing effect was judged based on the following judging criterion, and the results are shown in Table 8.
Δ: 15 mg or more and less than 35 mg

[6] = storage period 0 (immediately after preparation)

Q: For `CCCCCCCC(=O)OC[C@H](O)[C@H]1OC(=O)C(OCC(O)CO)=C1O` (some centres unmarked) [Example 2, 2-O-glyceryl-6-O-octanoyl ascorbic acid], which Color change ([1]; storage 2 weeks at 50° C.) is on record?
A: ◯ (total point of 10 panelists is 25 or more)

Q: What about the Odor ([1]; storage 2 weeks at 50° C.) of the same compound?
A: ◯ (total point of 10 panelists is 25 or more)

Q: What about the Color change ([1]; storage 4 weeks at 50° C.) of the same compound?
A: ◯ (total point of 10 panelists is 25 or more)

Q: What about the Odor ([1]; storage 4 weeks at 50° C.) of the same compound?
A: ◯ (total point of 10 panelists is 25 or more)

Q: What about the Color change [1, 6] of the same compound?
A: ◯ (total point of 10 panelists is 25 or more)

Q: What about the Odor [1, 6] of the same compound?
A: ◯ (total point of 10 panelists is 25 or more)

Q: And the activity at 100 µM [2]?
A: 100 to 200%

Q: What about the “Whitening effect (melanine production suppressing rate)” value (“Whitening effect” below) [3] of the same compound?
A: ⊚ (50% or more)

Q: What about the “in vivo moisturizing (stratum corneum water content) after 3 hours” value (from here on “in vivo moisturizing … after 3 hours”) [4] of the same compound?
A: ◯ (Total points of 10 subjects is 25 or more)

Q: What about the “in vivo moisturizing (stratum corneum water content) after 8 hours” value (shortened to “in vivo moisturizing … after 8 hours”) [4] of the same compound?
A: ◯ (Total points of 10 subjects is 25 or more)

Q: With `O=C1O[C@H]([C@@H](O)CO)C(O)=C1O[C@H]1O[C@H](CO)[C@@H](O)[C@H](O)[C@H]1O` [Glucosyl ascorbic acid, reference compound] as the compound, how does the “Collagen production promoting effect (collagen production amount, control group is 100%)” value [2] read?
A: + (100 to 200%)

Q: What about the “Whitening effect” value [3] of the same compound?
A: Δ (Less than 30%)

Q: What about the “in vitro moisturizing effect (amount of retained water per 1 g of the dried sample)” value [5] of the same compound?
A: Δ (15 mg or more and less than 35 mg)

Q: With `CCCCCCCCCCCC(=O)OC[C@H](O)[C@H]1OC(=O)C(OCC(O)CO)=C1O` (some centres unmarked) [Example 5, 2-O-glyceryl-6-O-dodecanoyl ascorbic acid] as the compound, how does the activity at 100 µM [2] read?
A: 100 to 200%

Q: What about the “Whitening effect” value [3] of the same compound?
A: ⊚ (50% or more)

Q: And the “in vivo moisturizing … after 3 hours” value [4]?
A: ◯ (Total points of 10 subjects is 25 or more)

Q: What about the “in vivo moisturizing … after 8 hours” value [4] of the same compound?
A: ◯ (Total points of 10 subjects is 25 or more)

Q: Which activity at 100 µM [2] does the source give for `O=C1O[C@H]([C@@H](O)CO)C(O)=C1OCC(O)CO` (some centres unmarked) [2-O-glyceryl ascorbic acid, reference compound] here?
A: 100 to 200%

Q: What about the “Whitening effect” value [3] of the same compound?
A: Δ (Less than 30%)

Q: And the “in vivo moisturizing … after 3 hours” value [4]?
A: Δ (Total points of 10 subjects is 16 to 24)

Q: And the “in vivo moisturizing … after 8 hours” value [4]?
A: Δ (Total points of 10 subjects is 16 to 24)

Q: What about the “in vitro moisturizing effect (amount of retained water per 1 g of the dried sample)” value [5] of the same compound?
A: ◯ (35 mg or more)

Q: What does the source list for `CCCCC(CC)C(=O)OC[C@H](O)[C@H]1OC(=O)C(OCC(O)CO)=C1O` (some centres unmarked) [Example 6, 2-O-glyceryl-6-O-(2-ethylhexanoyl) ascorbic acid]?
A: activity at 100 µM [2]: 100 to 200%; Whitening effect (melanine production suppressing rate) [3]: ⊚ (50% or more); in vivo moisturizing (stratum corneum water content) after 3 hours [4]: ◯ (Total points of 10 subjects is 25 or more); in vivo moisturizing (stratum corneum water content) after 8 hours [4]: ◯ (Total points of 10 subjects is 25 or more)

Q: Which Color change ([1]; storage 2 weeks at 50° C.) does the source give for `O=C1O[C@H]([C@@H](O)CO)C(OCC(O)CO)=C1O` (some centres unmarked) [3-O-glyceryl ascorbic acid] here?
A: ◯ (total point of 10 panelists is 25 or more)

Q: And the Odor ([1]; storage 2 weeks at 50° C.)?
A: ◯ (total point of 10 panelists is 25 or more)

Q: What about the Color change ([1]; storage 4 weeks at 50° C.) of the same compound?
A: Δ (total point of 10 panelists is 16 to 24)

Q: And the Odor ([1]; storage 4 weeks at 50° C.)?
A: ◯ (total point of 10 panelists is 25 or more)

Q: And the Color change [1, 6]?
A: ◯ (total point of 10 panelists is 25 or more)

Q: And the Odor [1, 6]?
A: ◯ (total point of 10 panelists is 25 or more)

Q: What about the activity at 100 µM [2] of the same compound?
A: 100 to 200%

Q: What about the “Whitening effect” value [3] of the same compound?
A: Δ (Less than 30%)

Q: What about the “in vivo moisturizing … after 8 hours” value [4] of the same compound?
A: Δ (Total points of 10 subjects is 16 to 24)

Q: What about the “in vitro moisturizing effect (amount of retained water per 1 g of the dried sample)” value [5] of the same compound?
A: ◯ (35 mg or more)

Q: Which activity at 100 µM [2] does the source give for `CCCCCCCC(=O)OCC(O)COC1=C(O)[C@@H]([C@@H](O)COC(=O)CCCCCCC)OC1=O` (some centres unmarked) [Example 4, 2-O-(3′-O-octanoylglyceryl)-6-O-octanoyl ascorbic acid] here?
A: 100 to 200%

Q: And the “Whitening effect” value [3]?
A: ⊚ (50% or more)

Q: What about the “in vivo moisturizing … after 3 hours” value [4] of the same compound?
A: ◯ (Total points of 10 subjects is 25 or more)

Q: And the “in vivo moisturizing … after 8 hours” value [4]?
A: ◯ (Total points of 10 subjects is 25 or more)

Q: With `CCCCCCCCCCCCCCCC(=O)OC[C@H](O)[C@H]1OC(=O)C(OCC(O)CO)=C1O` (some centres unmarked) [Example 3, 2-O-glyceryl-6-O-hexadecanoyl ascorbic acid] as the compound, how does the activity at 100 µM [2] read?
A: 100 to 200%

Q: And the “Whitening effect” value [3]?
A: ⊚ (50% or more)

Q: What about the “in vivo moisturizing … after 3 hours” value [4] of the same compound?
A: ◯ (Total points of 10 subjects is 25 or more)

Q: And the “in vivo moisturizing … after 8 hours” value [4]?
A: ◯ (Total points of 10 subjects is 25 or more)
